Toxic doses and inconclusive results are not listed.
Tested on: L1210 leukemia ip in BDF1 mice, survival T/C
Assay: NCI In Vivo Anticancer Drug Screen. Data for tumor model L1210 Leukemia (intraperitoneal) in B6D2F1 (BDF1) mice
Details: endpoint: mean survival time, higher = longer survival
How it was run: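 Read-out is survival time, reported as the treated-group measurement over the vehicle-control measurement.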

[1] = dose: 100.0 mg/kg/injection, schedule: Q01DX001 (ip), vehicle: saline with Tween-80
[2] = dose: 200.0 mg/kg/injection, schedule: Q01DX001 (ip), vehicle: saline with Tween-80
[3] = dose: 100.0 mg/kg/injection, schedule: Q04DX003 (ip), vehicle: saline with Tween-80

For `CCCCCCCCCCCCCC(C1CCCCC1)C1CCCCC1`, the T/C [1] was 113 % of control, the T/C [2] was 93 % of control and the T/C (dose: 400.0 mg/kg/injection, schedule: Q01DX001 (ip), vehicle: saline with Tween-80) was 95 % of control.

With `CN(C)c1ccc(C=Nc2cc(Cl)ccc2Cl)cc1` the T/C (dose: 100.0 mg/kg/injection, schedule: Q04DX003 (ip), vehicle: Klucel (hydroxypropylcellulose) (HPC)) was 89 % of control, the T/C (dose: 200.0 mg/kg/injection, schedule: Q04DX003 (ip), vehicle: Klucel (hydroxypropylcellulose) (HPC)) was 88 % of control and the T/C (dose: 400.0 mg/kg/injection, schedule: Q04DX003 (ip), vehicle: Klucel (hydroxypropylcellulose) (HPC)) was 89 % of control.

For `CC(=O)Nc1ccc(C(=O)Nc2ccc(C3=NCCN3)cc2)cc1C(=O)Nc1ccc(C2=NCCN2)cc1`, the T/C (dose: 62.0 mg/kg/injection, schedule: Q01DX015 (ip), vehicle: carboxymethylcellulose (CMC)) was 317 % of control and the T/C (dose: 250.0 mg/kg/injection, schedule: Q01DX015 (ip), vehicle: carboxymethylcellulose (CMC)) was 158 % of control.

For `CCCCSc1nc2ccc([N+](=O)[O-])cc2s1`, the T/C (dose: 100.0 mg/kg/injection, schedule: Q04DX002 (ip), vehicle: gum acacia) was 95 % of control, the T/C (dose: 200.0 mg/kg/injection, schedule: Q04DX002 (ip), vehicle: gum acacia) was 95 % of control and the T/C (dose: 400.0 mg/kg/injection, schedule: Q04DX002 (ip), vehicle: gum acacia) was 95 % of control.

With `CCCCC(/C=N\NC(=O)c1ccc[n+](C)c1)=C/c1ccccc1` the T/C [1] was 96 % of control and the T/C [2] was 102 % of control.

With `Cc1ccc(NC(=O)NCCCCCCNC(=O)Nc2ccc(C)c(Cl)c2)cc1Cl` the T/C [3] was 93 % of control, the T/C (dose: 200.0 mg/kg/injection, schedule: Q01DX009 (ip), vehicle: saline with Tween-80) was 89 % of control and the T/C (dose: 200.0 mg/kg/injection, schedule: Q04DX003 (ip), vehicle: saline with Tween-80) was 92 % of control. The T/C (dose: 400.0 mg/kg/injection, schedule: Q04DX003 (ip), vehicle: saline with Tween-80) was 95 % of control.

For `C=CCNCC=C`, the T/C (dose: 50.0 mg/kg/injection, schedule: Q01DX001 (ip), vehicle: saline) was 96 % of control, the T/C (dose: 100.0 mg/kg/injection, schedule: Q01DX001 (ip), vehicle: saline) was 96 % of control and the T/C (dose: 200.0 mg/kg/injection, schedule: Q01DX001 (ip), vehicle: saline) was 98 % of control.

For `CCOC(=O)c1cnn2c(SC)ncnc12`, the T/C (dose: 25.0 mg/kg/injection, schedule: Q04DX003 (ip), vehicle: saline with Tween-80) was 102 % of control, the T/C (dose: 50.0 mg/kg/injection, schedule: Q01DX009 (ip), vehicle: saline with Tween-80) was 102 % of control and the T/C (dose: 50.0 mg/kg/injection, schedule: Q04DX003 (ip), vehicle: saline with Tween-80) was 104 % of control. The T/C (dose: 100.0 mg/kg/injection, schedule: Q01DX009 (ip), vehicle: saline with Tween-80) was 91 % of control and the T/C [3] was 107 % of control.

For `O=C(NC1CCCCC1)Oc1cccc(NC(=S)Nc2ccccc2)c1`, the T/C (dose: 100.0 mg/kg/injection, schedule: Q01DX009 (ip), vehicle: Klucel (hydroxypropylcellulose) (HPC)) was 100 % of control, the T/C (dose: 200.0 mg/kg/injection, schedule: Q01DX009 (ip), vehicle: Klucel (hydroxypropylcellulose) (HPC)) was 97 % of control and the T/C (dose: 400.0 mg/kg/injection, schedule: Q01DX009 (ip), vehicle: Klucel (hydroxypropylcellulose) (HPC)) was 92 % of control.

With `O=S(c1ccc(Cl)cc1)N(OCc1ccccc1)S(=O)c1ccc(Cl)cc1` (stereo not drawn) the T/C (dose: 50.0 mg/kg/injection, schedule: Q01DX001 (ip), vehicle: Klucel (hydroxypropylcellulose) (HPC)) was 107 % of control, the T/C (dose: 100.0 mg/kg/injection, schedule: Q01DX001 (ip), vehicle: Klucel (hydroxypropylcellulose) (HPC)) was 100 % of control and the T/C (dose: 200.0 mg/kg/injection, schedule: Q01DX001 (ip), vehicle: Klucel (hydroxypropylcellulose) (HPC)) was 100 % of control.

With `CC(C)=CCC(/C=N/N=C(N)N)C(C)C` (stereo not drawn) the T/C (dose: 3.0 mg/kg/injection, schedule: Q01DX Z (ip), vehicle: saline) was 96 % of control, the T/C (dose: 7.0 mg/kg/injection, schedule: Q01DX Z (ip), vehicle: saline) was 105 % of control and the T/C (dose: 15.0 mg/kg/injection, schedule: Q01DX Z (ip), vehicle: saline) was 91 % of control. For the same molecule, the T/C (dose: 15.0 mg/kg/injection, schedule: Q01DX Z (oral), vehicle: saline) was 104 % of control, the T/C (dose: 30.0 mg/kg/injection, schedule: Q01DX Z (ip), vehicle: saline) was 94 % of control and the T/C (dose: 30.0 mg/kg/injection, schedule: Q01DX Z (oral), vehicle: saline) was 101 % of control. The T/C (dose: 60.0 mg/kg/injection, schedule: Q01DX Z (oral), vehicle: saline) was 87 % of control.
